Drawing on patent US10219516B2, “Molecules having pesticidal utility, and intermediates, compositions, and processes, related thereto” (priority 2015, dated 2019), this text covers pest or weed control and YFM rating for 19 molecules.

What all share (type): in vivo
Experiment [1] concerns Beet Armyworm (Spodoptera exigua, LAPHEG). Kind of experiment: Bioassay on Beet Armyworm (BAW), 128-well diet tray assay. To be noted: Beet Armyworm, 128-well diet tray assay, read-out: BAW rating. In a few lines: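 Diet in each of eight wells received 50 μg/cm^2 of test molecule (90:10 acetone-water, dried), then one to five second-instar larvae were added. Mortality (%) was scored after five to seven days at 25° C. under 14:10 light-dark and averaged across the wells.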

The test system of experiment [2] is Cabbage Looper (Trichoplusia ni, TRIPNI). Kind of experiment: Bioassay on Cabbage Looper (CL), 128-well diet tray assay. To be noted: Trichoplusia ni; Cabbage Looper, 128-well diet tray assay; read-out: CL rating. A digest of the protocol:
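Diet-incorporation-free surface assay: 50 μg/cm^2 compound in acetone-water (90:10), dried on diet; 1–5 2nd-instar larvae/well; 8 wells; vented cover; 25° C., 14:10 L:D, 5–7 d; % mortality averaged over wells.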

In experiment [3] the test system is Yellow Fever Mosquito (Aedes aegypti, AEDSAE). The experiment can be described thus: Bioassay on Yellow Fever Mosquito (YFM), 96-well plate larval assay. As to conditions: Yellow Fever Mosquito, 96-well plate larval assay. In a few lines: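 Compound stocks at 4000 ppm in DMSO were diluted with 90:10 water/acetone, and 15 μL aliquots were dispensed into six replicate plates. About 1-day-old larvae in liver-powder water were added per well. Plates were covered and held at room temperature for 3 days before each well was scored for mortality.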

Consider `O=C(Nc1ccc(F)cc1F)c1cc(NC(=O)[C@H]2[C@H](c3ccc(Cl)c(C(F)(F)F)c3)C2(Cl)Cl)ccc1Cl` (relative stereo) [F374, 2-Chloro-5-(trans)-(2,2-dichloro-3-(4-chloro-3-(trifluoromethyl)phenyl)cyclopropane-1-carboxamido)-N-(2,4-difluorophenyl)benzamide], for which the pest or weed control at 50 µg/cm2 in experiment [1] and in experiment [2] was 50 to 100% throughout. For the same molecule, the YFM rating entry in experiment [3] was “A (80-100)”.

Regarding `O=C(Nc1ccc(F)cc1F)c1cc(NC(=O)[C@H]2[C@H](c3ccc(F)c(Br)c3)C2(Cl)Cl)ccc1Cl` (relative stereo) [F375, 5-(trans)-(3-(3-Bromo-4-fluorophenyl)-2,2-dichlorocyclopropane-1-carboxamido)-2-chloro-N-(2,4-difluorophenyl)benzamide], the pest or weed control at 50 µg/cm2 in experiment [1] and in experiment [2] was 50 to 100% in each case. The YFM rating entry in experiment [3] is listed as “A (80-100)”.

As to `O=C(Nc1ccc(F)cc1F)c1cc(NC(=O)[C@H]2[C@H](c3ccc(F)c(C(F)(F)F)c3)C2(Cl)Cl)ccc1Cl` (relative stereo) [F376, 2-Chloro-5-(trans)-(2,2-dichloro-3-(4-fluoro-3-(trifluoromethyl)phenyl)cyclopropane-1-carboxamido)-N-(2,4-difluorophenyl)benzamide], the pest or weed control at 50 µg/cm2 in experiment [1] and in experiment [2] was 50 to 100% each time. The YFM rating result in experiment [3] is recorded as “A (80-100)”.

Take `C=C(F)c1ccc([C@H]2[C@H](C(=O)Nc3ccc(Cl)c(C(=O)Nc4ccc(F)cc4)c3)C2(Cl)Cl)cc1Cl` (relative stereo) [F382, 2-Chloro-5-(trans-2,2-dichloro-3-(3-chloro-4-(1-fluorovinyl)phenyl)cyclopropane-1-carboxamido)-N-(4-fluorophenyl)benzamide]: the pest or weed control at 50 µg/cm2 in experiment [1] and in experiment [2] was 50 to 100% throughout. The YFM rating entry in experiment [3] is given as “A (80-100)”.

Turning to `C=C(F)c1ccc([C@H]2[C@H](C(=O)Nc3ccc(Cl)c(C(=O)Nc4ccc(F)cc4F)c3)C2(Cl)Cl)cc1Cl` (relative stereo) [F383, 2-Chloro-5-(trans-2,2-dichloro-3-(3-chloro-4-(1-fluorovinyl)phenyl)cyclopropane-1-carboxamido)-N-(2,4-difluorophenyl)benzamide], the pest or weed control at 50 µg/cm2 in experiment [1] and in experiment [2] was 50 to 100% in each case. The YFM rating result in experiment [3] is listed as “A (80-100)”.

Take `C=C(F)c1cc([C@H]2[C@H](C(=O)Nc3ccc(Cl)c(C(=O)Nc4ccc(F)cc4)c3)C2(Cl)Cl)ccc1Cl` (relative stereo) [F384, 2-Chloro-5-(trans-2,2-dichloro-3-(4-chloro-3-(1-fluorovinyl)phenyl)cyclopropane-1-carboxamido)-N-(4-fluorophenyl)benzamide]: the pest or weed control at 50 µg/cm2 in experiment [1] and in experiment [2] was 50 to 100% throughout. Besides, the YFM rating entry in experiment [3] is “A (80-100)”.

Take `C=C(F)c1cc([C@H]2[C@H](C(=O)Nc3ccc(Cl)c(C(=O)Nc4ccc(F)cc4F)c3)C2(Cl)Cl)ccc1Cl` (relative stereo) [F385, 2-Chloro-5-(trans-2,2-dichloro-3-(4-chloro-3-(1-fluorovinyl)phenyl)cyclopropane-1-carboxamido)-N-(2,4-difluorophenyl)benzamide]: the pest or weed control at 50 µg/cm2 in experiment [1] and in experiment [2] was 50 to 100% throughout. In addition, in experiment [3], the YFM rating result was “A (80-100)”.

As to `C=C(F)c1cc(Cl)cc([C@H]2[C@H](C(=O)Nc3ccc(Cl)c(C(=O)Nc4ccc(F)cc4F)c3)C2(Cl)Cl)c1` (relative stereo) [F386, 2-Chloro-5-(trans-2,2-dichloro-3-(3-chloro-5-(1-fluorovinyl)phenyl)cyclopropane-1-carboxamido)-N-(2,4-difluorophenyl)benzamide], the pest or weed control at 50 µg/cm2 in experiment [1] and in experiment [2] was 50 to 100% throughout. In experiment [3], the YFM rating result is “A (80-100)”.

`C=C(F)c1cc(Cl)cc([C@H]2[C@H](C(=O)Nc3ccc(Cl)c(C(=O)Nc4ccc(F)cc4C#N)c3)C2(Cl)Cl)c1` (relative stereo) [F387, 2-Chloro-N-(2-cyano-4-fluorophenyl)-5-(trans-2,2-dichloro-3-(3-chloro-5-(1-fluorovinyl)phenyl)cyclopropane-1-carboxamido)benzamide]: the pest or weed control at 50 µg/cm2 in experiment [1] and in experiment [2] was 50 to 100% each time. For the same molecule, the YFM rating entry in experiment [3] is on record as “A (80-100)”.

Turning to `O=C(Nc1ncc(F)c(I)c1F)c1cc(NC(=O)[C@H]2[C@H](c3cc(Cl)cc(Cl)c3)C2(Cl)Cl)ccc1Cl` (relative stereo) [F388, 2-Chloro-5-(trans-2,2-dichloro-3-(3,5-dichlorophenyl)cyclopropane-1-carboxamido)-N-(3,5-difluoro-4-iodopyridin-2-yl)benzamide], the pest or weed control at 50 µg/cm2 in experiment [1] and in experiment [2] was 50 to 100% each time. The YFM rating entry in experiment [3] is “A (80-100)”.

As for `C=Cc1ccc([C@H]2[C@H](C(=O)Nc3ccc(Cl)c(C(=O)Nc4ccc(F)cc4F)c3)C2(Cl)Cl)cc1F` (relative stereo) [F389, 2-Chloro-5-(trans-2,2-dichloro-3-(3-fluoro-4-vinylphenyl)cyclopropane-1-carboxamido)-N-(2,4-difluorophenyl)benzamide], the pest or weed control at 50 µg/cm2 in experiment [1] and in experiment [2] was 50 to 100% throughout. Moreover, the YFM rating result in experiment [3] is “A (80-100)”.

Consider `C=Cc1cc([C@H]2[C@H](C(=O)Nc3ccc(Cl)c(C(=O)Nc4ccc(F)cc4F)c3)C2(Cl)Cl)ccc1F` (relative stereo) [F390, 2-Chloro-5-(trans-2,2-dichloro-3-(4-fluoro-3-vinylphenyl)cyclopropane-1-carboxamido)-N-(2,4-difluorophenyl)benzamide], for which the pest or weed control at 50 µg/cm2 in experiment [1] and in experiment [2] was 50 to 100% in each case. The YFM rating result in experiment [3] was “A (80-100)”.

Consider `C=Cc1ccc([C@H]2[C@H](C(=O)Nc3ccc(Cl)c(C(=O)Nc4ccc(F)cc4F)c3)C2(Cl)Cl)cc1C(F)(F)F` (relative stereo) [F391, 2-Chloro-5-(trans-2,2-dichloro-3-(3-(trifluoromethyl)-4-vinylphenyl)cyclopropane-1-carboxamido)-N-(2,4-difluorophenyl)benzamide], for which the pest or weed control at 50 µg/cm2 in experiment [1] and in experiment [2] was 50 to 100% each time. Further, in experiment [3], the YFM rating entry is on record as “A (80-100)”.

For the molecule `C=Cc1cc([C@H]2[C@H](C(=O)Nc3ccc(Cl)c(C(=O)Nc4ccc(F)cc4F)c3)C2(Cl)Cl)ccc1C(F)(F)F` (relative stereo) [F392, 2-Chloro-5-(trans-2,2-dichloro-3-(4-(trifluoromethyl)-3-vinylphenyl)cyclopropane-1-carboxamido)-N-(2,4-difluorophenyl)benzamide], the pest or weed control at 50 µg/cm2 in experiment [1] and in experiment [2] was 50 to 100% each time. In experiment [3], the YFM rating result is given as “A (80-100)”.

Turning to `C=Cc1c(F)cnc(NC(=O)c2cc(NC(=O)[C@H]3[C@H](c4cc(Cl)cc(Cl)c4)C3(Cl)Cl)ccc2Cl)c1F` (relative stereo) [F393, trans-2-chloro-5-(2,2-dichloro-3-(3,5-dichlorophenyl)cyclopropane-1-carboxamido)-N-(3,5-difluoro-4-vinylpyridin-2-yl)benzamide], the pest or weed control at 50 µg/cm2 in experiment [1] and in experiment [2] was 50 to 100% each time. Further, in experiment [3], the YFM rating entry was “A (80-100)”.

On to `C=C(F)c1c(F)cnc(NC(=O)c2cc(NC(=O)[C@H]3[C@H](c4cc(Cl)cc(Cl)c4)C3(Cl)Cl)ccc2Cl)c1F` (relative stereo) [F394, 2-Chloro-5-(trans-2,2-dichloro-3-(3,5-dichlorophenyl)cyclopropane-1-carboxamido)-N-(3,5-difluoro-4-(1-fluorovinyl)pyridin-2-yl)benzamide], for which the pest or weed control at 50 µg/cm2 in experiment [1] and in experiment [2] was 50 to 100% throughout. In experiment [3], the YFM rating entry was “A (80-100)”.

Take `O=C(Nc1cnc(F)c(Br)c1)c1cc(NC(=O)[C@H]2[C@H](c3cc(Cl)cc(Cl)c3)C2(Cl)Cl)ccc1Cl` (relative stereo) [F395, N-(5-Bromo-6-fluoropyridin-3-yl)-2-chloro-5-(trans-2,2-dichloro-3-(3,5-dichlorophenyl)cyclopropane-1-carboxamido)benzamide]: the pest or weed control at 50 µg/cm2 in experiment [1] and in experiment [2] was 50 to 100% each time. The YFM rating result in experiment [3] was “A (80-100)”.

For `Cc1cc(NC(=O)c2cc(NC(=O)[C@H]3[C@H](c4cc(Cl)cc(Cl)c4)C3(Cl)Cl)ccc2Cl)cnc1F` (relative stereo) [F396, 2-Chloro-5-(trans-2,2-dichloro-3-(3,5-dichlorophenyl)cyclopropane-1-carboxamido)-N-(6-fluoro-5-methylpyridin-3-yl)benzamide], the pest or weed control at 50 µg/cm2 in experiment [1] and in experiment [2] was 50 to 100% each time. Also, in experiment [3], the YFM rating result is recorded as “A (80-100)”.

Turning to `C=Cc1ccc(NC(=O)c2cc(NC(=O)[C@H]3[C@H](c4cc(Cl)cc(Cl)c4)C3(Cl)Cl)ccc2Cl)nc1F` (relative stereo) [F397, 2-Chloro-5-(trans-2,2-dichloro-3-(3,5-dichlorophenyl)cyclopropane-1-carboxamido)-N-(6-fluoro-5-vinylpyridin-2-yl)benzamide], the pest or weed control at 50 µg/cm2 in experiment [1] and in experiment [2] was 50 to 100% in each case. Further, the YFM rating result in experiment [3] is listed as “A (80-100)”.
